Measurements from article PMC6827146, “Short-Term Low Temperature Induces Nitro-Oxidative Stress that Deregulates the NADP-Malic Enzyme Function by Tyrosine Nitration in Arabidopsis thaliana” (Antioxidants, 2019).

Biological target: T1, cytosolic NADP-ME2 (recombinant Arabidopsis NADP-malic enzyme 2) (Arabidopsis thaliana, UniProt Q9LYG3)
T1 construct: full-length cDNA (1785 bp PCR product) in pALEXb; E. coli
T1 sequence (Q9LYG3 1-588): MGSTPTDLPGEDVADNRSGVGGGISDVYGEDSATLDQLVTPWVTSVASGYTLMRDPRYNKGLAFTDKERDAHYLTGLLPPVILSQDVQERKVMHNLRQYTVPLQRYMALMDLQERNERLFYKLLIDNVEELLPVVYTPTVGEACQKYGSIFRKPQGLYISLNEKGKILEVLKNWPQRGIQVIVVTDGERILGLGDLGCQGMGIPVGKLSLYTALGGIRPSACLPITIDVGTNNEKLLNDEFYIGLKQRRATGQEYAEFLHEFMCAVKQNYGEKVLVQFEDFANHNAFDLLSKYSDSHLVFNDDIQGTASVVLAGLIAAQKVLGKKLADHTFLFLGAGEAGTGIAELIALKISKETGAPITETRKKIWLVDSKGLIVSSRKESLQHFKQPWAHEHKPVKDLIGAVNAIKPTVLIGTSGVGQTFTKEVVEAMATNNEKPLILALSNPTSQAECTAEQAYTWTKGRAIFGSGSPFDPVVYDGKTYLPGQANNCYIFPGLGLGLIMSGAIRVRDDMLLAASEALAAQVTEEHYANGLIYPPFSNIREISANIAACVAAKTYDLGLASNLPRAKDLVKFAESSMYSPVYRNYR
Assay: spectrophotometric NADP reduction at […] nm after preincubation with peroxynitrite donor
Assay type: biochemical
Details: covalent (Tyr-73 nitration); peroxynitrite generated in situ from donor SIN-1, so concentration is that of the donor; 37 °C, 1 h preincubation; assay pH 7.6, 25 °C, 2 mM MgCl2, 0.8 mM NADP, 1 mM L-mal

% inhibition with 5 mM SIN-1 (donor): 56%
Substance: ONOO^−
